“And” between values parts separate entries of the source, which are not always exact repeats. Equal entries are not always repeated. Where two headings read alike, the source gives them in different places.
Tests used:
[1] = test system: SKBR3 cells; assay: SKBR3 Cell Viability Assay; type: cell-based; details: CellTiter Glo, read-out: MCL1 CV SKBR3 EC50
Description: SKBR3 Cell Viability Assay Materials
SKBR3 Cells (ATCC HTB-30) were obtained from ATCC (Manassas, Va.) and cultured in McCoy 5A's medium (ATCC 30-2007)+10% fetal bovine serum (SH30071.03, HyClone, Pittsburgh, Pa.) plus 1× Penicillin-Streptomycin L-glutamine (Corning 30-009-CI, Corning, N.Y.).
The cell viability assay was conducted in a 384-well tissue culture plate (Grenier 781086, Monroe, N.C.) in a total volume of 70 μL. Test compounds were prepared in 1,000×, serially diluted, and pre-spotted into 384-well tissue culture plate by Echo 555 Liquid Handler (Labcyte Inc., San Jose, Calif.). Seventy μL of 6,000 SKBR3 cells were dispensed into each well of the plate and incubated at 37° C. with 5% CO2 for 72 hours. At the end of incubation, 2× CellTiter Glo (CTG) reagents (1 part buffer with 2 parts substrate) (Promega, Madison, Wis.) were prepared, and the plate and the reagent were equilibrated to room temperature for 30 minutes. CTG reagent was added to each plate by Biomek FX at 20 μL/well with 5 times pipetting and mixing to induce cell lysis. Luminescence was read by Envision multimode reader (PerkinElmer). Percent inhibition was calculated as followed: % Inhibition=100%*(Well−Neg)/(Pos−Neg) Neg, negative control, DMSO Pos, positive control, 10 μM Puromycin

[2] = molecular target: MCL1/Bim (Homo sapiens (Human), UniProt Q07820); assay: MCL1/Bim Binding AlphaLISA Assay; details: recombinant human 6xHis-MCL1 (171-327), biotinylated Bim peptide (51-76)
Description: MCL1/Bim Binding AlphaLISA Assay.
Inhibition of the MCL1 and Bim interaction was measured in the following AlphaLISA assay.
Recombinant human MCL1 protein (C-terminal 6×His Tagged MCL1 containing residues 171-327) was generated at Gilead Sciences, Inc. (Foster City, Calif.). A biotinylated peptide derived from human Bim (residues 51-76) was purchased from CPC Scientific (Sunnyvale, Calif.). (CPC 834113). AlphaLISA anti-6His- acceptor beads (AL128R), AlphaScreen Streptavidin donor beads (6760002B), and Proxiplate-384 Plus (6008289) were purchased from PerkinElmer.
The AlphaLISA assay was performed in a 384-well Proxiplate in a total volume of […]. The reaction mixture contained 0.0625 nM 6×His-MCL1 (171-327), 0.0625 nM biotinylated-Bim peptide, 10 μg/mL AlphaLISA anti-6×His-AlphaLISA acceptor beads, 40 μg/mL AlphaScreen streptavidin donor beads, and serially diluted test compounds in the binding buffer (20 mM Hepes, pH 7.5 (Teknova H1035); 150 mM NaCl (Promega V4221); 0.002% Brij 35 (Thermo Scientific 20150); 1 mM Dithiothreitol (DTT) Solution (Affymetrix 70726); 0.01% BSA (BioLabs B9000S)). 1,000× test compounds were pre-spotted onto 384-well Proxiplate (Labcyte Echo) by Echo 555 Liquid Handler (Labcyte Inc., San Jose, Calif.) followed by incubation of 5 μL MCL1(171-327) for 1 hour. Then 5 μL Bim (51-76) was added and incubated for 2 hours. Five μL AlphaLISA anti-6His-AlphaLISA acceptor beads were then added for 1 hour followed by addition of 5 μL AlphaScreen streptavidin donor beads for 1 hour. The reaction plates were then read on an Envision multimode reader (PerkinElmer) using AlphaScreen settings. Percent inhibition was calculated as shown below: % Inhibition=100%*(Well−Neg)/(Pos−Neg) Neg: negative control, DMSO Pos: positive control, no MCL1 protein, no biotinylated-Bim peptide

[3] = Homo sapiens, SK-BR-3, 72 hours

Chain of MCL1/Bim (Q07820 171-327): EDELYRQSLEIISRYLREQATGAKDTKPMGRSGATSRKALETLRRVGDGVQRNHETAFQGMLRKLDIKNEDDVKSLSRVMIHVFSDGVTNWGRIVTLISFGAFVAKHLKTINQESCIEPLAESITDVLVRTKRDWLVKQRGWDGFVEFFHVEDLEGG

Row | EC50 [1, 3] | IC50 [2] | EC50 ([1]; 72 hours) | Compound
1 | 26.5 nM | 0.061 nM | – | CO[C@H]1/C=C/C[C@H](C)C[S@@](=O)(Nc2ncnc3nn(C)cc23)=NC(=O)c2ccc3c(c2)N(C[C@@H]2CC[C@H]21)C[C@@]1(CCCc2cc(Cl)ccc21)CO3 [Example 8]
2 | 170 nM | 0.11 nM | – | CO[C@H]1/C=C/C[C@H](C)C[S@@](=O)(Nc2nc(Cl)nc3nn(C)cc23)=NC(=O)c2ccc3c(c2)N(C[C@@H]2CC[C@H]21)C[C@@]1(CCCc2cc(Cl)ccc21)CO3 [Example 9]
3 | 47.6 nM | 0.084 nM | – | COc1nc(N[S@@]2(=O)=NC(=O)c3ccc4c(c3)N(C[C@@H]3CC[C@H]3[C@@H](OC)/C=C/C[C@H](C)C2)C[C@@]2(CCCc3cc(Cl)ccc32)CO4)c2cn(C)nc2n1 [Example 10]
4 | – | 2.39 nM | 4550 nM | COc1nnc(NS2(=O)=NC(=O)c3ccc4c(c3)N(C[C@@H]3CC[C@H]3[C@@H](OC)/C=C/C[C@H](C)C2)C[C@@]2(CCCc3cc(Cl)ccc32)CO4)c2nn(C)cc12 (stereo partly drawn) [Example 17]
5 | 41.3 nM | 0.313 nM | – | CO[C@H]1/C=C/C[C@H](C)C[S@@](=O)(Nc2nc(NCCN3CCOCC3)nc3nn(C)cc23)=NC(=O)c2ccc3c(c2)N(C[C@@H]2CC[C@H]21)C[C@@]1(CCCc2cc(Cl)ccc21)CO3 [Example 20]
6 | 169 nM | 0.121 nM | – | COc1ncc2c(N[S@@]3(=O)=NC(=O)c4ccc5c(c4)N(C[C@@H]4CC[C@H]4[C@@H](OC)/C=C/C[C@H](C)C3)C[C@@]3(CCCc4cc(Cl)ccc43)CO5)ncnc2n1 [Example 22]
7 | 10.3 nM | 0.026 nM | – | CO[C@H]1/C=C/C[C@H](C)C[S@@](=O)(NC(=O)c2cn(C)nc2N2CCN(C3COC3)CC2)=NC(=O)c2ccc3c(c2)N(C[C@@H]2CC[C@H]21)C[C@@]1(CCCc2cc(Cl)ccc21)CO3 [Example 24]
8 | 40 nM | 0.103 nM | – | CO[C@@H]1/C=C\C[C@H](C)C[S@@](=O)(Nc2ncnc3nn(C)cc23)=NC(=O)c2ccc3c(c2)N(C[C@@H]2CC[C@H]21)C[C@@]1(CCCc2cc(Cl)ccc21)CO3 [Example 27]
9 | 30.1 nM | 0.019 nM | – | C[C@H]1C/C=C/[C@H](O)[C@@H]2CC[C@H]2CN2C[C@@]3(CCCc4cc(Cl)ccc43)COc3ccc(cc32)C(=O)N=[S@](=O)(Nc2nc(N3CCOCC3)nc3nn(C)cc23)C1 [Example 33]
10 | – | 0.267 nM | 1070 nM | COc1nn(C)cc1C(=O)N[S@@]1(=O)=NC(=O)c2ccc3c(c2)N(C[C@@H]2CC[C@H]2[C@@H](O)C#CC[C@H](C)C1)C[C@@]1(CCCc2cc(Cl)ccc21)CO3 [Example 36]
11 | 57.7 nM | 0.04 nM | – | COc1nn(C)cc1C(=O)N[S@@]1(=O)=NC(=O)c2ccc3c(c2)N(C[C@@H]2CC[C@H]2[C@@H](OC)C#CC[C@H](C)C1)C[C@@]1(CCCc2cc(Cl)ccc21)CO3 [Example 37]
12 | – | 1.67 nM | 3570 nM | CC[C@H]1C/C=C/[C@H](OC)[C@@H]2CC[C@H]2CN2C[C@@]3(CCCc4cc(Cl)ccc43)COc3ccc(cc32)C(=O)N=[S@@](=O)(NC(=O)c2cnn(C)c2)C1 [Example 43]
13 | – | 0.693 nM | 173 nM | COc1nn(C)cc1C(=O)N[S@@]1(=O)=NC(=O)c2ccc3c(c2)N(C[C@@H]2CC[C@H]2C(=O)/C=C/C[C@H](C)[C@H]1C)C[C@@]1(CCCc2cc(Cl)ccc21)CO3 [Example 48]
14 | – | 0.194 nM | 525 nM | Cn1nccc1CCC(=O)NS1(=O)=NC(=O)c2ccc3c(c2)N(C[C@@H]2CC[C@H]2[C@@H](OCCN2CCOCC2)/C=C/CCC1)C[C@@]1(CCCc2cc(Cl)ccc21)CO3 (stereo partly drawn) [Example 49]

Continued, compound first:

Row | Compound | EC50 [1, 3] | IC50 [2] | EC50 ([1]; 72 hours)
15 | CO[C@H]1/C=C/C[C@H](C)C[S@@](=O)(Nc2nc(C)nc3nn(C)cc23)=NC(=O)c2ccc3c(c2)N(C[C@@H]2CC[C@H]21)C[C@@]1(CCCc2cc(Cl)ccc21)CO3 [Example 12] | 38.7 nM | 0.129 nM | –
16 | CNc1nc(N[S@@]2(=O)=NC(=O)c3ccc4c(c3)N(C[C@@H]3CC[C@H]3[C@@H](OC)/C=C/C[C@H](C)C2)C[C@@]2(CCCc3cc(Cl)ccc32)CO4)c2cn(C)nc2n1 [Example 18] | 19.6 nM | 0.042 nM | –
17 | CO[C@H]1/C=C/C[C@H](C)C[S@@](=O)(Nc2nc(N(C)C)nc3nn(C)cc23)=NC(=O)c2ccc3c(c2)N(C[C@@H]2CC[C@H]21)C[C@@]1(CCCc2cc(Cl)ccc21)CO3 [Example 19] | 37.8 nM | 0.066 nM | –
18 | COc1ccc2c(N[S@@]3(=O)=NC(=O)c4ccc5c(c4)N(C[C@@H]4CC[C@H]4[C@@H](OC)/C=C/C[C@H](C)C3)C[C@@]3(CCCc4cc(Cl)ccc43)CO5)ncnc2c1 [Example 21] | 882 nM | 0.156 nM | –
19 | CO[C@H]1/C=C/C[C@H](C)C[S@@](=O)(NC(=O)c2cn(C)nc2N2CCN3CCOC[C@@H]3C2)=NC(=O)c2ccc3c(c2)N(C[C@@H]2CC[C@H]21)C[C@@]1(CCCc2cc(Cl)ccc21)CO3 [Example 23] | 17.3 nM | 0.083 nM | –
20 | CO[C@H]1/C=C/CCC[S@@](=O)(Nc2ncnc3nn(C)cc23)=NC(=O)c2ccc3c(c2)N(C[C@@H]2CC[C@H]21)C[C@@]1(CCCc2cc(Cl)ccc21)CO3 [Example 26] | 119 nM | 0.224 nM and 0.233 nM | –
21 | C[C@H]1C/C=C/[C@H](O)[C@@H]2CC[C@H]2CN2C[C@@]3(CCCc4cc(Cl)ccc43)COc3ccc(cc32)C(=O)N=[S@](=O)(Nc2ncnc3nn(C)cc23)C1 [Example 29] | 15.3 nM | 0.038 nM | –
22 | C[C@H]1C/C=C/[C@H](O)[C@@H]2CC[C@H]2CN2C[C@@]3(CCCc4cc(Cl)ccc43)COc3ccc(cc32)C(=O)N=[S@](=O)(Nc2nc(Cl)nc3nn(C)cc23)C1 [Example 30] | 930 nM | 0.03 nM | –
23 | C[C@H]1C/C=C/[C@H](O)[C@@H]2CC[C@H]2CN2C[C@@]3(CCCc4cc(Cl)ccc43)COc3ccc(cc32)C(=O)N=[S@](=O)(Nc2nc(N)nc3nn(C)cc23)C1 [Example 32] | 18.5 nM | 0.057 nM | –
24 | C[C@@H]1[C@@H](C)C/C=C/[C@H](O)[C@@H]2CC[C@H]2CN2C[C@@]3(CCCc4cc(Cl)ccc43)COc3ccc(cc32)C(=O)N=[S@]1(=O)Nc1ncnc2nn(C)cc12 [Example 34] | 25.4 nM | 0.088 nM | –
25 | COc1nn(C)cc1C(=O)N[S@@]1(=O)=NC(=O)c2ccc3c(c2)N(C[C@@H]2CC[C@H]2[C@H](O)/C=C/C[C@H](C)C1)C[C@@]1(CCCc2cc(Cl)ccc21)CO3 [Example 39] | 146 nM | 0.201 nM | –
26 | CC[C@@H]1CC/C=C/[C@H](OC)[C@@H]2CC[C@H]2CN2C[C@@]3(CCCc4cc(Cl)ccc43)COc3ccc(cc32)C(=O)N=S1(=O)NC(=O)COC1CCOCC1 (stereo partly drawn) [Example 40] | – | 0.101 nM | 326 nM
27 | CC[C@@H]1CC/C=C/[C@H](OC)[C@@H]2CC[C@H]2CN2C[C@@]3(CCCc4cc(Cl)ccc43)COc3ccc(cc32)C(=O)/[N+]([O-])=[S@]\1NC(=O)c1cn(C)nc1OC [Example 41] | – | 0.146 nM | 126 nM
28 | CC[C@H]1C/C=C/[C@H](OC)[C@@H]2CC[C@H]2CN2C[C@@]3(CCCc4cc(Cl)ccc43)COc3ccc(cc32)C(=O)N=[S@](=O)(NC(=O)NC2CC2)C1 [Example 42] | – | 0.253 nM | 233 nM
29 | CCn1ccc(OC[C@H]2C/C=C/[C@H](OC)[C@@H]3CC[C@H]3CN3C[C@@]4(CCCc5cc(Cl)ccc54)COc4ccc(cc43)C(=O)N=[S@@](=O)(NC(=O)COC3CCOCC3)C2)n1 [Example 46] | – | 0.521 nM | 1600 nM
30 | COc1nn(C)cc1C(=O)N[S@]1(=O)=NC(=O)c2ccc3c(c2)N(C[C@@H]2CC[C@H]2C(=O)/C=C/C[C@H](C)C1)C[C@@]1(CCCc2cc(Cl)ccc21)CO3 [Example 47] | – | 0.167 nM | 81.9 nM

— US11667652B2, “MCL1 inhibitors” (Gilead Sciences, Inc., priority 2019, dated 2023)
